Like-named read-outs stand apart in the source and are kept apart here.

The procedure of series [1]: Formation of the Zn-complex can be monitored by absorbance or fluorescence emission and excitation shifts. Aliquots of a dye stock solution in DMSO were added to 500 μL of buffers containing 10 nM, 100 nM, 1 μM or 10 μM free zinc (controlled by Ca^2+/Zn^2+ EGTA and 10 mM HEPES; see Walkup, G. K., Burdette, S. C., Lippard, S. J., and Tsien, R. Y., J. Am. Chem. Soc. 2000, 122, 5644–5645) or zinc free (10 mM HEPES, 1 mM EDTA buffer) solutions to yield approximately 1–1.5 μM dye solution (ε˜65,500 M^−1 cm^−1).

The test system of series [2] is his6-CFP. Particulars: +Zn2+ + his6-CFP: 1 μM dye, pH 7.2, 100 μM ZnCl2 and 1 μM his6-CFP.
Description: Excitation (ex), emission (em) maxima (in nm) and fluorescence quantum yields (φ) of 1 μM dye in 100 mM KCl 10 mM MOPS pH 7.2 with 50 μM EDTA (—Zn^2+), 100 μM ZnCl2 (+Zn^2+) or 100 μM ZnCl2 and 1 μM his6-CFP (+Zn^2++his6-CFP).
For series [3], the system named is HEK293 cells expressing a His6-tagged test-protein. An excerpt:
A gene encoding the peptide […] (His6-) was created by the polymerase chain reaction (PCR), using pRSETB template (Invitrogen). BglII and SacII restriction sites were incorporated at the 5′ and 3′ ends of the gene, by using the forward primer […] and reverse primer […]. For expression on the surface of mammalian cells, the gene was inserted into the pDisplay vector (Invitrogen) using the BglII and SacII restriction sites. This vector supplies the necessary sequences for entry into the secretory pathway and anchoring to the outer face of the plasma membrane.
HEK 293 cells were plated onto sterilized glass cover slips on 2 cm dishes or 10 cm plates and grown to 50–100% confluency in DMEM supplemented with 10% FBS at 37° C. in 6% CO2. Cells were transfected with FUGENE-6 transfection reagent (Roche Molecular Biochemicals). After 24 to 48 h incubation at 37° C. in culture medium, the cells were washed once with Hanks' balanced salt solution buffer (HBSS). Then 2 mL of the staining solution (HEPES buffer with 1 μM free Zn^2+ (pH 7.4), ˜1–1.5 μM of compound (I) (DMSO stock)) was added to the cells. After 1 min, the cells were washed twice with HBSS and imaged. Imaging experiments were performed with excitation at 540 nm (25 nm bandwidth), emission at 595 nm (50 nm bandwidth), and dichroic mirror at 560 nm for the Zn-compound (I); and excitation at 420 nm (20 nm bandwidth), emission at 475 nm (40 nm bandwidth) and dichroic mirror at 450 nm for CFP.
(§1) A solution of Compound (I) in buffer containing 1 μM Zn^2+ was added extracellularly to intact HEK293 cells expressing a His6-tagged test-protein, targeted to the surface of the cell membrane.

The source holds these as a separate data set.
For series [4], the system named is poly-histidine peptide. On the procedure: as §1
The mark [5] stands for this setting: +Zn2+: 1 μM dye, pH 7.2, 100 μM ZnCl2.
[6] abbreviates: −Zn2+: 1 μM dye, 100 mM KCl 10 mM MOPS pH 7.2, 50 μM EDTA.

With `Cc1c(O)c(NS(=O)(=O)c2ccccn2)cc2c1Oc1c(cc(NS(=O)(=O)c3ccccn3)c(O)c1C)C21OC(=O)c2ccccc21` [Compound I, 2′,7′-Bis(pyridyl-2-sulfonamido)-4′,5′-dimethylfluorescein], the “Extinction coefficient ε” value in series [1] (dye solution in HEPES buffers) is ~65,500 M^−1 cm^−1. Further, in series [1] (virtually unchanged between 0 and 1 μM free Zn2+ (FIG. 2)), the Fluorescence quantum yield was around 0.4. In series [2], the “Emission maximum (em)” value turned out to be 560 nm, the “Excitation maximum (ex)” value is 536 nm and the “Fluorescence quantum yield (φ)” value worked out at 0.09. Besides, in series [3] (intact HEK293 cells, 1 μM Zn2+), the Speed of staining result was “stains cells virtually instantaneously”. Also, the “Staining of non-transfected cells” value in series [3] (neighboring non-transfected HEK293 cells, same staining) was “no staining”. Also, the Reversibility of staining result in series [3] (washing with EDTA solutions (FIG. 7)) was “staining is reversible by washing with EDTA solutions”. In series [3] (~1–1.5 μM compound, 1 μM free Zn2+, added extracellularly, 1 min, washed), the “Staining of transfected cells” value is listed as “transfected cells clearly showed membrane specific fluorescent staining”. For the same compound, under setting [5], the “Emission maximum (em)” value is 557 nm, the “Excitation maximum (ex)” value amounted to 523 nm and the “Fluorescence quantum yield (φ)” value is 0.34. In addition, under setting [6], the “Emission maximum (em)” value was 545 nm, the “Excitation maximum (ex)” value was determined as 518 nm and the “Fluorescence quantum yield (φ)” value is reported as 0.40. For the same compound, in series [4], the Fluorescence anisotropy binding entry was “clearly indicate binding to a poly-histidine peptide”.

For the compound “2′,7′-bis(2-pyridylsulfonamido)-4′,5′-difluorofluorescein [Compound IV]”, the “Emission maximum (em)” value in series [2] is listed as 570 nm, the “Emission maximum (em)” value under setting [5] amounted to 566 nm and the “Emission maximum (em)” value under setting [6] is on record as 547 nm. Further, the “Excitation maximum (ex)” value in series [2] stood at 545 nm, the “Excitation maximum (ex)” value under setting [5] came to 533 nm and the “Excitation maximum (ex)” value under setting [6] is on record as 525 nm. Also, the “Fluorescence quantum yield (φ)” value in series [2] was found to be 0.08, the “Fluorescence quantum yield (φ)” value under setting [5] is recorded as 0.35 and the “Fluorescence quantum yield (φ)” value under setting [6] came to 0.60.

“2′,7′-bis(2-dimethylaminoethanesulfonamido)-4′,5′-difluorofluorescein [Compound II]”: in series [2], the “Emission maximum (em)” value is 560 nm, the “Excitation maximum (ex)” value came to 531 nm and the “Fluorescence quantum yield (φ)” value was determined as 0.19. Under setting [5], the “Emission maximum (em)” value is reported as 560 nm, the “Excitation maximum (ex)” value is listed as 523 nm and the “Fluorescence quantum yield (φ)” value worked out at 0.37. Moreover, under setting [6], the “Emission maximum (em)” value is reported as 544 nm, the “Excitation maximum (ex)” value turned out to be 517 nm and the “Fluorescence quantum yield (φ)” value was 0.47.

For the origin of these results see patent US7041821B2, “Synthetic molecules for labeling histidine-rich proteins” (The Regents of the University of California, priority 2003, dated 2006).
